Assay results published in PMC8999638, “Identification of Entry Inhibitors against Delta and Omicron Variants of SARS-CoV-2” (International Journal of Molecular Sciences, 2022).
pEC50: −log10 of the molar value. “And” between values parts separate entries of the source, which are not always exact repeats. Equal entries are not always repeated. Structures can show the parent of a compound that is named as a salt. Where two headings read alike, the source gives them in different places.

Assays:
[1] = biological target: RBD-ACE2 attachment (RBD of viral spike protein and ACE2 receptor) (Severe acute respiratory syndrome coronavirus 2, UniProt P0DTC2); assay: cell-based; design: species or system SARS-CoV-2; human; conditions: for inhibition at 20 µM / inhibition at 100 µM: HeLa; for inhibition at 20 µM: read-out: Positive Screening RBD Attachment Assay % Inhibition (20 μM); for inhibition at 100 µM: read-out: Positive Screening RBD Attachment Assay % Inhibition (100 μM)
NanoBiT = assay: Negative screening HiBiT assay (NanoBiT activity); type: cell-based; conditions: for Negative Screening HiBiT Assay % Inhibition (20 μM): 20 μM drug; for Negative Screening HiBiT Assay % Inhibition (100 μM): 100 μM drug; for Negative Screening HiBiT Assay INHIBIT NanoBiT: >70% inhibition in 100 μM, then including >35% inhibition at 20 μM
VERO E6 cells = conditions: for CC50: read-out: VeroE6 CC50, VERO E6 cells, CellTiter-Glo
in vitro = conditions: African green monkey
[2] = tested on: spike-based pseudovirus (wild type) on SmBiT-ACE2 HeLa cells; assay: microbe, parasite or virus in culture; type: cell-based, SARS-CoV-2; conditions: for pEC50: read-out: EC50 Pseudovirus Wild Type
SARS-CoV-2 = assay: microbe, parasite or virus in culture; type: cell-based
[3] = VeroE6 CC50, VERO E6 cells, CellTiter-Glo

Row | Molecule | Positive Screening RBD Attachment Assay Dose Response [1] | inhibition at 20 µM [1] | inhibition at 100 µM [1] | Negative Screening HiBiT Assay % Inhibition (20 μM) (NanoBiT) | Negative Screening HiBiT Assay % Inhibition (100 μM) (NanoBiT) | Negative Screening HiBiT Assay INHIBIT NanoBiT (NanoBiT) | also measured
1 | CCOC(=O)C1=C(C)NC(C)=C(C(=O)OC)C1c1cccc(Cl)c1Cl (centres unmarked) [Felodipine] | Yes | 63% | 96% | 88% | 99% | Yes | –
2 | CN(C)c1ccc(C(=C2C=CC(=[N+](C)C)C=C2)c2ccc(N(C)C)cc2)cc1 [Crystal Violet] | Yes | 73% | 99% | 17% | 86% | Yes | –
3 | Clc1ccc(COC(Cn2ccnc2)c2ccc(Cl)cc2Cl)c(Cl)c1 (centres unmarked) [Miconazole nitrate] | – | – | – | 3% | 12% | No | CC50 (VERO E6 cells): 16.9 µM
4 | CC1(C)CCC(CN2CCN(c3ccc(C(=O)NS(=O)(=O)c4ccc(NCC5CCOCC5)c([N+](=O)[O-])c4)c(Oc4cnc5[nH]ccc5c4)c3)CC2)=C(c2ccc(Cl)cc2)C1 [ABT-199] | Yes | 51% | 96% | 0% | 43% | No | pEC50 [1]: 4.41; CC50 (in vitro; [3]): 17.3 µM
5 | C[C@@H]1CCO[C@H]2Cn3cc(C(=O)NCc4ccc(F)cc4F)c(=O)c(O)c3C(=O)N12 [Dolutegravir sodium] | Yes | > 70% | 96% | 1% | 62% | No | pEC50 [1]: 4.84; EC50 ([2]; Pseudovirus, HeLa, read-out: EC50 (nM) (Wild type)): 22.9 nM; pEC50 ([2]; Pseudovirus, HeLa): 7.40; pEC50 (SARS-CoV-2; Severe acute respiratory syndrome coronavirus 2, Vero C1008, 120 h, read-out: EC50 SARS-CoV-2 PRNT): 5.38; Cytotoxicity to VeroE6 cells (VERO E6 cells; VeroE6 cells): not toxic; CC50 (in vitro; [3]): > 100 µM
6 | Nc1ccc(/N=N/c2ccccc2)c(N)n1 [Phenazopyridine hydrochloride] | Yes | 52% | 91% | 48% | 83% | Yes | –
7 | CCCC(=O)OCOC(=O)C1=C(C)NC(C)=C(C(=O)OC)C1c1cccc(Cl)c1Cl (centres unmarked) [Clevidipine butyrate] | Yes | – | – | 79% | 93% | Yes | Positive Screening RBD Attachment Assay % Inhibition (20 μM) [1]: 69%; Positive Screening RBD Attachment Assay % Inhibition (100 μM) [1]: 93%
8 | O=C1CCc2ccc(OCCCCN3CCN(c4cccc(Cl)c4Cl)CC3)cc2N1 [Aripiprazole] | – | – | – | 13% | 21% | No | CC50 (in vitro; [3]): 14 µM
9 | COCCOC(=O)C1=C(C)NC(C)=C(C(=O)OC(C)C)C1c1cccc([N+](=O)[O-])c1 (centres unmarked) [Nimodipine] | Yes | 64% | 96% | 79% | 97% | Yes | –
10 | COC(=O)C1=C(C)NC(C)=C(C(=O)OCCN(C)Cc2ccccc2)C1c1cccc([N+](=O)[O-])c1 (centres unmarked) [Nicardipine hydrochloride] | Yes | 58% | 86% | 64% | 88% | Yes | –
11 | O=C1C(O)=C([C@H]2CC[C@H](c3ccc(Cl)cc3)CC2)C(=O)c2ccccc21 [Atovaquone] | Yes | 39% | 95% | 54% | 96% | Yes | –
12 | CCCCc1oc2ccc(NS(C)(=O)=O)cc2c1C(=O)c1ccc(OCCCN(CCCC)CCCC)cc1 [Dronedarone hydrochloride] | Yes | 41% | 93% | 21% | 86% | Yes | –
13 | CC(C)(C)c1nc(-c2cccc(NS(=O)(=O)c3c(F)cccc3F)c2F)c(-c2ccnc(N)n2)s1 [Dabrafenib (GSK2118436), Dabrafenib] | Yes | 85% | 96% | 88% | 97% | Yes | –
14 | CC(=O)Oc1ccccc1C(=O)Nc1ncc([N+](=O)[O-])s1 [Nitazoxanide] | Yes | 69% | 93% | 77% | 95% | Yes | –
15 | Gramicidin | Yes | – | – | 0% | 35% | No | Positive Screening RBD Attachment Assay % Inhibition (100 μM) [1]: 95%; pEC50 ([1]; read-out: EC50 RBD Attachment): 5.28; pEC50 [2]: ~5.92 and 5.92; CC50 (VERO E6 cells): 3.9 µM
16 | CCCCCCCCCCCCCCCC[N+](C)(C)CCN(Cc1ccc(OC)cc1)c1ncccn1 [Thonzonium Bromide] | Yes | 93% | 99% | 36% | 52% | Yes | –
17 | CC[C@H](C)[C@H]1O[C@]2(CC[C@@H]1C)C[C@@H]1C[C@@H](C/C=C(\C)[C@@H](O[C@H]3C[C@H](OC)[C@@H](O[C@H]4C[C@H](OC)[C@@H](O)[C@H](C)O4)[C@H](C)O3)[C@@H](C)/C=C/C=C3\CO[C@@H]4[C@H](O)C(C)=C[C@@H](C(=O)O1)[C@]34O)O2 [Ivermectin] | Yes | 29% | 68% | 0% | 4% | No | pEC50 ([1]; read-out: EC50 RBD Attachment): 4.64; pEC50 ([2]; Pseudovirus, HeLa): 5.23; blocked SARS-CoV-2 infection (PRNT) (SARS-CoV-2; 10 μM): 60%; CC50 (in vitro; [3]): 11.9 µM
18 | Clc1ccc(COC(Cn2ccnc2)c2ccc(Cl)cc2Cl)c(Cl)c1 (centres unmarked) [Miconazole] | – | – | – | 6% | 15% | No | CC50 (in vitro; [3]): 14 µM
19 | OCCOc1ccc(/C(=C(/CCCl)c2ccccc2)c2ccccc2)cc1 [Ospemifene] | Yes | 39% | 68% | 3% | 8% | No | pEC50 ([1]; EC50 RBD Attachment): 4.25; Cytotoxicity to VeroE6 cells (VERO E6 cells): not toxic; CC50 (in vitro; VeroE6 CC50): > 100 µM
